Test results: patent US20240002441A1, “PEPTIDES AND USES THEREOF IN MODULATION OF AMYLOID-BETA PROTEIN DEGRADING PROTEASES” (priority 2020, published 2024)
Like-named read-outs stand apart in the source and are kept apart here.

Experiments:
ECE2 = target: T1, ECE2 (Homo sapiens, UniProt P0DPD6); experiment: QFS assay of Aβ-degrading enzymes: ECE2 (Example 6); format: biochemical
T1 construct: purchased R & D systems 1645-ZN-010
T1 sequence (P0DPD6 1-811): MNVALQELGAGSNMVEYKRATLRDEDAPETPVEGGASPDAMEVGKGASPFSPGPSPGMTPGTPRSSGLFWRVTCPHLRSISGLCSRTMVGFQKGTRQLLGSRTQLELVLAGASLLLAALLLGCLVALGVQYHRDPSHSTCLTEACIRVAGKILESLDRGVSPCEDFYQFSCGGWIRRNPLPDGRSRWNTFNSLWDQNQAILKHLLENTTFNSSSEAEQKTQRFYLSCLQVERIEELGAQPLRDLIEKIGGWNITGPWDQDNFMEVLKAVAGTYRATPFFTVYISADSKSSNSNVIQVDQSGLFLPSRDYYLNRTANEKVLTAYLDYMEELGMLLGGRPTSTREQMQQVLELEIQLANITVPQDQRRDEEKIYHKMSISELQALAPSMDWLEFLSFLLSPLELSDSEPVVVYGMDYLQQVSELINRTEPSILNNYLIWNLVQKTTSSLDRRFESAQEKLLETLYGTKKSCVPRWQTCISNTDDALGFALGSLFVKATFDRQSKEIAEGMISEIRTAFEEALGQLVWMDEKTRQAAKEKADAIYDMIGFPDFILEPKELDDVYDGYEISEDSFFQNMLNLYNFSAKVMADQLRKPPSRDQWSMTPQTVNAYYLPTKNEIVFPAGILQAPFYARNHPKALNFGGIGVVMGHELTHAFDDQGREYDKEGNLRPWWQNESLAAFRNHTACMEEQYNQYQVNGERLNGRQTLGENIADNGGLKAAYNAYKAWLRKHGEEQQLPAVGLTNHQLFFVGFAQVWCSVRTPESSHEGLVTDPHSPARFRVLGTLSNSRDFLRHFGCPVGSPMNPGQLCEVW
Description: Plate reader-based enzyme assays were performed using a quenched fluorescent substrate (QFS) in a 96-well format using a SpectraMAX M4 Microplate reader (Molecular Devices). The increase in fluorescence following addition of QFS (40 μM) was taken as evidence of enzyme activity. Fluorescence was monitored over 2 h at 37° C. using κEx=320 nm and λEm=405 nm. Assays were conducted in black 96-well plates. Specific enzyme activity was expressed as a rate of substrate cleavage calculated using a standard curve of 7-methoxy-coumarin-4-acetic acid.
In all plate reader-based enzyme assays using QFS, the reaction rate (μmol of substrate cleaved/min) was calculated using linear regression analysis (GraphPad Prism software version 8.01). The reaction rates calculated were used to generate the enzyme kinetic parameters Vmax and Km through non-linear regression analysis (GraphPad Prism software, version 8.01; Michaelis-Menten equation). Where indicated, enzyme activity in the presence of peptide was expressed as a % of the enzyme alone. Data were expressed as mean±SEM and statistical significance was determined using t-tests or one-way ANOVAs followed by Tukey's post-hoc test. P<0.05 was considered as statistically significant. […]
SEQ ID NO:2 was assessed in a QFS assay against enzymes NEP, ECE1, ECE2, ACE1, ACE2, IDE and MMP-2 using the method in Example 2 and the following procedure. […]

NEP = target: T2, NEP (Homo sapiens, UniProt P08473); experiment: Cleavage of synthetic Aβ42 by NEP, LCMS (Example 7); format: biochemical; settings: NEP 0.15 ng/μL, peptide 9 μM, Aβ42 0.05 μg/μL
T2 construct: purchased R & D systems 1182-ZNC-010
T2 sequence (P08473 whole entry): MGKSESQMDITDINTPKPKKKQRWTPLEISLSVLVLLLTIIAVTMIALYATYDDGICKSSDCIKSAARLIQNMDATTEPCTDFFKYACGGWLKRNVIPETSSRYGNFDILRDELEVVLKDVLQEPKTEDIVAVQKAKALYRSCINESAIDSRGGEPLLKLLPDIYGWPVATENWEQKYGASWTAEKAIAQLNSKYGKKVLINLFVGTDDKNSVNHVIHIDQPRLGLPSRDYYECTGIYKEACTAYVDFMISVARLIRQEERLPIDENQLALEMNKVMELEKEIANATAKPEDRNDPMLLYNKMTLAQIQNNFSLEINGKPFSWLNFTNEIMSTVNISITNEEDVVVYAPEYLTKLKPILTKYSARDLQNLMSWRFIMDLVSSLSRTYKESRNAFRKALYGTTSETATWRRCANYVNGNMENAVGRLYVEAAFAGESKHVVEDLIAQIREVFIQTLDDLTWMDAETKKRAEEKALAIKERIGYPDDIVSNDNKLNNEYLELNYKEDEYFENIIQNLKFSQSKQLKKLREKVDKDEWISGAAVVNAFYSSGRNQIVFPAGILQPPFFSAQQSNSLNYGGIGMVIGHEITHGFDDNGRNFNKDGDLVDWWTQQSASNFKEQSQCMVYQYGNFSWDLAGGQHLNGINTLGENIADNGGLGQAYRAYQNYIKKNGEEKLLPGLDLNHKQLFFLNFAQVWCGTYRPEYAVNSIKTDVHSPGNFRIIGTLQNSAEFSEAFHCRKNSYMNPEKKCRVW
Description: Synthetic Aβ40 (0.10 μg/μL) was added to a reaction mixture containing NEP (0.05 ng/μL) pre-incubated with SEQ ID NO:2 or scrambled control (9 μM) for 1 h at 37° C. Synthetic Aβ42 (0.05 μg/μL) was added to a reaction mixture containing NEP (0.15 ng/μL) preincubated with either scrambled control or SEQ ID NO:2 (9 μM) for 1 h at 37° C. Samples containing enzyme alone had only NEP buffer (Table 2). The cleavage reaction was allowed to continue in a thermomixer at 37° C. Aliquots of equal volume were taken over 24 h. Aliquots were immediately acidified with 0.1% trifluoroacetic acid (TFA) to terminate enzyme activity and snap frozen in dry ice. Samples were stored at −80° C. until analysed by LCMS.
Samples were analysed by LC-MS/MS using a quadrupole TOF mass spectrometer (MicroTOFq, Bruker Daltonics, Bremen, Germany) coupled online with a 1200 series nano-HPLC (Agilent technologies, Santa Clara, CA, USA). Samples were injected onto a zorbax 300SB reversed phase trap column with 95% solvent A (0.1% formic acid) at a flow rate of 10 μL/minute. The peptides were eluted over a 10-min gradient to 70% solvent B (80% acetonitrile, 0.1% formic acid) and separated on a 15-cm, 75-μmID zorbax 300SB nanocolumn. The eluent was nebulised and ionised using the Bruker nano-ESI source with a capillary voltage of 4500 V, dry gas at 180° C., flow rate of 5 L/minute and nebuliser gas pressure at 300 mbar. […]

ACE2 = target: T3, ACE2 (Homo sapiens, UniProt Q9BYF1); experiment: Cleavage of synthetic Ang II to Ang 1-7 by ACE2, LCMS (Example 8); format: biochemical; settings: rhACE2 0.1 ng/μL, peptide 1.7 μM, Ang II 0.02 μg/μL
T3 construct: purchased R & D systems 933-ZN-010
T3 sequence (Q9BYF1 18-805): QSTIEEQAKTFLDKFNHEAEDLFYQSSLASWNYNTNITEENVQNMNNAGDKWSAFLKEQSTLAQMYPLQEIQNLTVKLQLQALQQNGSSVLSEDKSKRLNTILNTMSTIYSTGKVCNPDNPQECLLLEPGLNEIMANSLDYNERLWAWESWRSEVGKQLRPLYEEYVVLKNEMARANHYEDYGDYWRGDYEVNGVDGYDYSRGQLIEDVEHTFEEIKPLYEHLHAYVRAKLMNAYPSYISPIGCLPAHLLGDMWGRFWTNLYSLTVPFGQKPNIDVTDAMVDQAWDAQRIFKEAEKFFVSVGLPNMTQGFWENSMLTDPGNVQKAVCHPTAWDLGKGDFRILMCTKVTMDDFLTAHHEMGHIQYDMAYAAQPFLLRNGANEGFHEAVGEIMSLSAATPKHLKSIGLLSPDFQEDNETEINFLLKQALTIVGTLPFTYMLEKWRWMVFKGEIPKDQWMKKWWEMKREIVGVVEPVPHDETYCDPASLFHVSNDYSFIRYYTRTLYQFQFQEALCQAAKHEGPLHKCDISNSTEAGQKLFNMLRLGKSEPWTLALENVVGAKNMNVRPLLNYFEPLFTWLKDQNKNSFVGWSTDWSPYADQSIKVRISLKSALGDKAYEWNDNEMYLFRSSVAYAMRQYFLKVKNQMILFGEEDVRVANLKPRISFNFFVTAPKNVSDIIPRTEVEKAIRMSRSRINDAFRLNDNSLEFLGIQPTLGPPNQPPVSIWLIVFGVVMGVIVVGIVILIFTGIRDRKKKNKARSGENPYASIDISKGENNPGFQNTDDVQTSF
Description: Samples were analysed by LC-MS/MS using a quadrupole TOF mass spectrometer (MicroTOFq, Bruker Daltonics, Bremen, Germany) coupled online with a 1200 series nano-HPLC (Agilent technologies, Santa Clara, CA, USA). Samples were injected onto a zorbax 300SB reversed phase trap column with 95% solvent A (0.1% formic acid) at a flow rate of 10 μL/minute. The peptides were eluted over a 10-min gradient to 70% solvent B (80% acetonitrile, 0.1% formic acid) and separated on a 15-cm, 75-μmID zorbax 300SB nanocolumn. The eluent was nebulised and ionised using the Bruker nano-ESI source with a capillary voltage of 4500 V, dry gas at 180° C., flow rate of 5 L/minute and nebuliser gas pressure at 300 mbar. The MS acquisition was in selected ion monitoring mode after selected ion extraction of the MS spectra. Prior to analysis, the qTOF mass spectrometer was calibrated using a 1:50 dilution tuning mix (Agilent technologies, Santa Clara, CA, USA). Data from MS run were processed in Skyline version 19.1.0.193 (Uni. Of Washington, WA, USA) to perform ion chromatogram extractions and peak integrations.
rhACE2 (0.1 ng/μL) was incubated with SEQ ID NO:2 (1.7 μM) for 1 h at 37° C. Ang II (0.02 μg/μL) was then added to the reaction mixture. Aliquots of equal volume were collected at 0, 3, 6 and 24 h. […] The samples were analysed by LC-MS/MS using the method in Example 7.

SARS-CoV-2 = format: cell-based; settings: pre-treatment, Vero cells, 8 h

H-SLFELGKMIL-NH2 [SEQ ID NO:2, H2N-SLFELGKMIL-NH2]
ECE2 activity compared with respective enzyme alone (ECE2; peptide 2 μM (FIG. 2c)): did not increase
ECE2 activity, concentration dependence (ECE2; peptide 0.9-26 μM): did not affect
amount of cleavage products Aβ1-12, Aβ1-16 and Aβ1-21 formed from Aβ42 over 24 h, compared with scrambled control (NEP): significantly higher
production of Ang 1-7 (ACE2): 165±12 % of ACE2 alone
ACE2-mediated breakdown of Ang II over 24 h, decrease in peak area (ACE2; 24 h): 83±5 % of initial
viral titre compared to PBS (SARS-CoV-2; 200 ng/μL): significantly reduced
viral RNA compared to PBS (SARS-CoV-2; 400 ng/μL): significantly reduced
viral titre compared to PBS (SARS-CoV-2; 400 ng/μL): significantly reduced
